Inhibition and IC50 data for 14 compounds are collected here from ChEMBL document CHEMBL3997784, “Discovery of new nanomolar inhibitors of GPa: Extension of 2-oxo-1,2-dihydropyridinyl-3-yl amide-based GPa inhibitors” (Eur J Med Chem, 2017).

Molecules are shown by their SMILES. Calls of active or inactive are those of the source. The rule behind the calls is not given here. Some results are limits rather than exact numbers.

Assay [1] addresses Glycogen phosphorylase, muscle form (Oryctolagus cuniculus) (UniProt P00489). Kind of assay: Inhibition of rabbit muscle glycogen phosphorylase A assessed as release of inorganic phosphate from glucose-1- phosphate in presence of glycogen at 222 uM after 30 mins by malachite green based assay relative to control.
For assay [2] the target is unchanged. Kind of assay: Inhibition of rabbit muscle glycogen phosphorylase A assessed as release of inorganic phosphate from glucose-1- phosphate in presence of glycogen after 30 mins by malachite green based assay.
The target is the same in assay [3]. Kind of assay: Inhibition of rabbit muscle glycogen phosphorylase A assessed as release of inorganic phosphate from glucose-1- phosphate in presence of glycogen at 2.2 uM after 30 mins by malachite green based assay relative to control.
Assay [4] addresses T1, Glycogen phosphorylase, muscle form (Rattus norvegicus) (UniProt P09812).
T1 sequence (whole entry): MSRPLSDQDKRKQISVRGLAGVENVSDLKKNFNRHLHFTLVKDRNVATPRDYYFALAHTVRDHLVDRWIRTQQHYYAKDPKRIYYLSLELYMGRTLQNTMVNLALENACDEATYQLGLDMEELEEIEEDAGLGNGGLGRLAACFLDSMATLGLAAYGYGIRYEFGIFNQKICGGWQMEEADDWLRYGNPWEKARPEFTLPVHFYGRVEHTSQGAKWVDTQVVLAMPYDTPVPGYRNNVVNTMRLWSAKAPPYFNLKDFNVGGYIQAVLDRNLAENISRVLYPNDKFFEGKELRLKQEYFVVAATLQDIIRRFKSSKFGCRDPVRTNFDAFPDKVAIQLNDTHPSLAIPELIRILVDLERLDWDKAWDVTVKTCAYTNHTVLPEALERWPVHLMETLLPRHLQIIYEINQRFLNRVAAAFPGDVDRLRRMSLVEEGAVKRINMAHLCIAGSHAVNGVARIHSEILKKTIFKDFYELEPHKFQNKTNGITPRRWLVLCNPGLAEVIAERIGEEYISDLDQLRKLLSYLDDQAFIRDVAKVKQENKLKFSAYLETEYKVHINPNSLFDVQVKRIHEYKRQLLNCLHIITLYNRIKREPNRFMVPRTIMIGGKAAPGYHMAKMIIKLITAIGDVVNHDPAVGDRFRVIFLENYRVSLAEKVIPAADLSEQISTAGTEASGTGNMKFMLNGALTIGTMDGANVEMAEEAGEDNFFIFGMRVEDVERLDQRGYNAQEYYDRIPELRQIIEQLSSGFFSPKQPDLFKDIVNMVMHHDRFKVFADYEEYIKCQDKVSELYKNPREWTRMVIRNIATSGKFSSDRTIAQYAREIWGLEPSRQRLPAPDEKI
The conditions noted are these: 22.2 uM.
Description: Inhibition of rat muscle glycogen phosphorylase A assessed as release of inorganic phosphate from glucose-1- phosphate in presence of glycogen at 22.2 uM after 30 mins by malachite green based assay relative to control

Chain of Glycogen phosphorylase, muscle form (Oryctolagus cuniculus) (P00489 whole entry, looked up): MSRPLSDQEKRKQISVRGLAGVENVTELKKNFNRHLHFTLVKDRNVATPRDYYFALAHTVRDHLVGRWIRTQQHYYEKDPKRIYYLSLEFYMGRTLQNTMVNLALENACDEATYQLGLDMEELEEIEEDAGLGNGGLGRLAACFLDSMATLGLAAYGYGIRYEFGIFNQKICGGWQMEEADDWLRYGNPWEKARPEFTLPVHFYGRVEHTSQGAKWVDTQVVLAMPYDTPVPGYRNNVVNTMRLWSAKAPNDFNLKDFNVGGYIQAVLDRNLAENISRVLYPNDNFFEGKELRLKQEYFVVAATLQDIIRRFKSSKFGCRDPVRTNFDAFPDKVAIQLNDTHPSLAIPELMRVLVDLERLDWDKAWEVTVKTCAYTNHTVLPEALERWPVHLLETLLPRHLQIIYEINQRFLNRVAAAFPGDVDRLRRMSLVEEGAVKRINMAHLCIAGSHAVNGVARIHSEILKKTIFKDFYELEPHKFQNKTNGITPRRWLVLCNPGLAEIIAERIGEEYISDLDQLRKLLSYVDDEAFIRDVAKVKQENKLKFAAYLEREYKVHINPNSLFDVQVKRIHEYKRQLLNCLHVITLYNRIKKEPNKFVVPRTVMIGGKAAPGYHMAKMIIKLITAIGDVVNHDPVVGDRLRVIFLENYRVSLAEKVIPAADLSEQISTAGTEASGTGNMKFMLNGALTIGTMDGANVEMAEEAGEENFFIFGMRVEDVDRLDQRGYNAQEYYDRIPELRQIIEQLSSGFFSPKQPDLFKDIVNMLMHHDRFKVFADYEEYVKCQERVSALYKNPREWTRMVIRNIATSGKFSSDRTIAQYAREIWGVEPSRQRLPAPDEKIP

The term inhibition denotes the change of the read-out against control, counted positive when it falls. On to `O=C(Cn1cccc(NCc2ccccc2)c1=O)NCc1cn(Cc2ccccc2)nn1`, for which the inhibition in assay [1] stood at 60%. The term IC50 denotes the concentration that gives 50% inhibition. `O=c1c(NCc2ccc(Cl)c(Cl)c2)cccn1Cc1ccccc1`: in assay [1], the inhibition is greater than 85%. Moreover, in assay [2], the concentration for half-maximal inhibition (IC50) came to 33 µM. Turning to `O=C(Cn1cccc(NC(=O)c2ccccc2)c1=O)NCCNC(=O)Cn1cccc(NC(=O)c2ccccc2)c1=O`, the inhibition result in assay [1] was “inactive”. With `CCOC(=O)Cn1cccc(NC(=O)Nc2ccc(NC(=O)Nc3cccn(CC(=O)OCC)c3=O)cc2)c1=O`, the inhibition in assay [1] was greater than 85%. In addition, the half-maximal inhibitory concentration (IC50) in assay [2] was determined as 3.1 µM. In the case of `O=C(Cn1cccc(NCc2ccc(CNc3cccn(CC(=O)NCc4ccc(Cl)c(Cl)c4)c3=O)s2)c1=O)NCc1ccc(Cl)c(Cl)c1`, the inhibition in assay [3] was greater than 85%. Further, in assay [2], the IC50 stood at 0.26 µM. With `Cn1cccc(NCc2ccc(Cl)c(Cl)c2)c1=O`, the inhibition in assay [1] stood at 34%. Still for that read-out and setting: the value for `O=C(NCc1ccc(Cl)c(Cl)c1)C1CCCN(C(=O)c2ccccc2)C1=O` (centres undefined) was 39%. Take `O=C(Cn1cccc(NC(=O)Nc2ccc(NC(=O)Nc3cccn(CC(=O)NCc4ccc(Cl)c(Cl)c4)c3=O)cc2)c1=O)NCc1ccc(Cl)c(Cl)c1`: the inhibition in assay [3] is greater than 85%. In assay [2], the IC50 is 0.23 µM. Turning to `CCOC(=O)Cn1cccc(NCc2ccc(CNc3cccn(CC(=O)OCC)c3=O)s2)c1=O`, the inhibition in assay [1] worked out at 29%. On the same count and under the same terms, the figure for `Cc1ccn(CC(=O)NCc2ccc(Cl)c(Cl)c2)c(=O)c1NCc1ccccc1` is 38%. The same measure, in the same setting: the entry for `O=c1c(NCc2ccccc2)cccn1Cc1ccccc1` is “inactive”; for `O=C(NCc1ccccc1)C1CCCN(C(=O)c2ccccc2)C1=O` (centres undefined) it is “inactive”.

Regarding `CCCNC(=O)Cn1cccc(NC(=O)Nc2ccc(NC(=O)Nc3cccn(CC(=O)NCCC)c3=O)cc2)c1=O`, the IC50 in assay [2] came to 1.6 µM. In assay [4], this compound yielded an inhibition greater than 85%. Regarding `O=C(NCc1ccccc1)C1CCCN(C(=O)c2ccccc2Cl)C1=O` (centres undefined), in assay [1], the inhibition came to 38%.
